{"source": "patent US20120195986A1", "about": "“PREVENTING OR TREATING PERIODONTAL DISEASES BY HERBAL EXTRACT” (priority 2009, published 2012)", "tested_on": "male ICR mice", "test": "In vivo anti-inflammatory activity (croton oil-induced ear inflammation, ear thickness)", "parameters": "species or system mouse", "conditions": "20 mg/kg orally (positive control)", "experimental": "In order to evaluate in vivo anti-inflammatory activity of the combined extract prepared in Preparation Examples 4 to 7 showing improved osteoblast proliferation and anti-inflammatory activity in the above Experimental Examples 1 and 2 and single extract in Examples 1.1 and 1.2, Hee et. al.'s method was used for the evaluation (Kor J. Pharmacogn. 25(4), 363˜367, 1994, Arch. Pharm. Res. 16(1), 18˜24, 1993.), and the result is shown in Table 2. In Table 2, 20 mg/kg was administered for positive control (Indomethacin, Sigma) and 200 mg/kg was administered for the test groups orally. Dose dependent anti-inflammatory activity was evaluated for the Example 5 with the highest activity, and the result is shown in Table 3. The thickness of ear was measured by using a thickness gauge (model H, Peacock, Japan) for male ICR mice (6 weeks, Samtaco Biokorea) before treating with the formulation. The control and test drug was administered orally, and the inflammation was induced 1 hour after the administration by smearing 10 uL of inflammation inducing material (2.5% croton oil, sigma) dissolved in acetone on the inner and outer ear after immobilizing the mice. In 5 hours, the mice were sacrificed by cervical dislocation and the thickness of the right ear was measured."}
{"smiles": "COc1ccc2c(c1)c(CC(=O)O)c(C)n2C(=O)c1ccc(Cl)cc1", "note": "[Indomethacin]", "values": [{"measurement": "Anti-inflammatory activity (%)", "result": 50, "unit": "%"}]}
